Measured values taken from US11530180B2, “Alpha-5 beta-1 inhibitors” (The Regents of the University of California, priority 2019, dated 2022).

Target: alpha-5-beta-1 integrin (Homo sapiens (Human), UniProt P05556+P08648)
Assay: alpha-5-beta-1 integrin cell adhesion assay (SW480 cells on human plasma fibronectin)
Assay type: cell-based
Description: Cell Adhesion Assay. Evaluation of cell attachment to extracellular matrix proteins was performed as previously described by Yokosaki et al, J. Biol. Chem., 271: (39): 24144-24150 (1996). Briefly, wells of non-tissue culture-treated polystyrene 96-well flat-bottom microtiter plates (Linbro/Titertek, Flow Laboratories, McLean, Va.) were coated by incubation with 100 μl of each substrate in PBS at 37° C. for 1 hour. 96-well flat-bottomed tissue culture plates were coated with human plasma fibronectin for 1 hour at 37° C. After incubation, wells were washed with PBS, then blocked with 1% bovine serum albumin (BSA) for one hour. Control wells were filled with 1% BSA. SW480 cells were detached using 10 mM EDTA and resuspended in serum-free DMEM. For blocking experiments, cells were incubated with 10 μg/ml of the antibody for 15 minutes at 4° C. before plating. The plates were centrifuged at 10 g for 5 minutes before incubation for 1 hour at 37° C. in humidified 5% CO2. Nonadherent cells were removed by centrifugation (top side down) at 10 g for 5 minutes. Attached cells were stained with 0.5% crystal violet, and the wells were washed with PBS. The relative number of cells in each well was evaluated after solubilization in 40 μl of 2% Triton X-100 by measuring absorbance at 595 nm in a microplate reader. All determinations were carried out in triplicate.
Table 2 provides the IC50 (nM) results of an alpha-5-beta-1 integrin cell adhesion assay for the compounds shown. The assay was performed following the procedures set forth in Example 1 and as described by Yokosaki et al, J. Biol. Chem., 271: (39): 24144-24150 (1996).

[1] = cell adhesion assay, SW480 cells, fibronectin-coated plates, Table 1
[2] = alpha-5-beta-1 integrin cell adhesion assay following Example 1, Table 2

Chain of alpha-5-beta-1 integrin (P08648 42-894): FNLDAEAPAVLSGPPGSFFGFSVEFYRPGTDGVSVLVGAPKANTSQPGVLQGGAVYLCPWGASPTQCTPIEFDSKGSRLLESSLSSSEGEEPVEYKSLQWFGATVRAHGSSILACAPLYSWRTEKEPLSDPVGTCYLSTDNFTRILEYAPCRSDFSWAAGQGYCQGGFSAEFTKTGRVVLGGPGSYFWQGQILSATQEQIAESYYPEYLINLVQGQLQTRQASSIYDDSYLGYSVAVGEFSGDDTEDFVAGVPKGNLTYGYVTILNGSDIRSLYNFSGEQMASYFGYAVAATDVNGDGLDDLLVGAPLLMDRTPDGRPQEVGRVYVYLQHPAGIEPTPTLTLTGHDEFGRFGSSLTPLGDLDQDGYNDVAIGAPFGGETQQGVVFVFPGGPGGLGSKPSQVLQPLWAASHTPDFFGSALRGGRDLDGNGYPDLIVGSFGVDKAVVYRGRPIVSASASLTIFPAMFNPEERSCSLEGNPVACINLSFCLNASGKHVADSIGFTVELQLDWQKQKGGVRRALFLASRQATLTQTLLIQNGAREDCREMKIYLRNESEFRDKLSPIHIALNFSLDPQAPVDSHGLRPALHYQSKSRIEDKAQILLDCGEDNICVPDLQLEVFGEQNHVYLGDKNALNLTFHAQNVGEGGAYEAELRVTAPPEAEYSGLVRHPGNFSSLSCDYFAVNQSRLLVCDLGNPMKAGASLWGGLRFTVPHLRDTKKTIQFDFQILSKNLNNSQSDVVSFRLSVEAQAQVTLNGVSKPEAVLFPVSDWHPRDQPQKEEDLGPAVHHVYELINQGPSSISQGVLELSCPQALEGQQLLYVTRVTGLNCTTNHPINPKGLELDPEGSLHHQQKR
Chain of alpha-5-beta-1 integrin (P08648 895-1049 partner): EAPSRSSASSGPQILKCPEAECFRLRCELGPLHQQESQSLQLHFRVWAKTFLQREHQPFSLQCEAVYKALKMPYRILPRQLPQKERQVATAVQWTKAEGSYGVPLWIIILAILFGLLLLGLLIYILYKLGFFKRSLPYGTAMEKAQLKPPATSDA
Chain of alpha-5-beta-1 integrin (P05556 21-798): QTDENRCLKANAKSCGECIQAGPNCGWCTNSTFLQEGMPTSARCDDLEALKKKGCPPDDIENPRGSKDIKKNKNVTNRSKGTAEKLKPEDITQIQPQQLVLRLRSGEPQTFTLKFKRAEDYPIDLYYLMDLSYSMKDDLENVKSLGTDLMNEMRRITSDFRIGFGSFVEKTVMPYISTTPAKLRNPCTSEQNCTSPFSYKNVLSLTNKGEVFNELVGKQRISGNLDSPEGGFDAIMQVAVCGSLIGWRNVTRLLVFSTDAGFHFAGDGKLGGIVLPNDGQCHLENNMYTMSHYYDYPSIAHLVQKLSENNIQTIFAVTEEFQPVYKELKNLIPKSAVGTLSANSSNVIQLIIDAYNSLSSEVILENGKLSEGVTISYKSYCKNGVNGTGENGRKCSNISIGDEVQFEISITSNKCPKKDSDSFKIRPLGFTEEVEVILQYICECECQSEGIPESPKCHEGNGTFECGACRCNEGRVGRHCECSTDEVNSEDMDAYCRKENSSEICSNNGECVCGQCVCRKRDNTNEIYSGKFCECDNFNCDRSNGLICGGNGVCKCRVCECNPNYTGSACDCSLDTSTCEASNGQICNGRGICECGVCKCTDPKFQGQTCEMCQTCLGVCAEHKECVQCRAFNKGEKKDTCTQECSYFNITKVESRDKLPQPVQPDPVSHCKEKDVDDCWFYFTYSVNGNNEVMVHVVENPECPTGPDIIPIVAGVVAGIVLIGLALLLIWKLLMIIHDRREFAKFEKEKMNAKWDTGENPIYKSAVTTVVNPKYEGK

SMILES	IC50 [1] [nM]	IC50 [2] [nM]
Cc1cccc(Cl)c1C(=O)N[C@@H](CNC(=O)CNC(=O)c1cccc(NC(=N)N)c1)C(=O)O	< 1000	
Cc1ccnc(Nc2cccc(C(=O)NCC(=O)NC[C@H](NC(=O)c3c(Cl)cccc3Cl)C(=O)O)c2)c1	< 10000	
CNc1cccc(CCC(=O)NCC(=O)NC[C@H](NC(=O)c2c(Cl)cc(-c3ccccc3)cc2Cl)C(=O)O)n1 [SU15210-0152-01, (S)-2-(3,5-dichlorobiphenyl-4-ylcarboxamido)-3-(2-(3-(6-(methylamino)pyridin-2-yl)propanamido)acetamido)propanoic acid]		1000 to 10000
COc1ccc(Nc2cccc(C(=O)NCC(=O)NC[C@H](NC(=O)c3c(Cl)cccc3Cl)C(=O)O)c2)nc1	< 50000	
N=C(N)Nc1cccc(C(=O)NCC(=O)NC[C@H](NC(=O)c2c(Cl)cccc2Cl)C(=O)O)c1	< 100	
N=C(N)Nc1cccc(C(=O)NCC(=O)NC[C@H](NC(=O)c2c(Cl)cc(N3CCOCC3)cc2Cl)C(=O)O)c1	< 100	
O=C(CNC(=O)c1cccc(NC2=NCCCN2)c1)NC[C@H](NC(=O)c1c(Cl)cccc1Cl)C(=O)O	< 100	
O=C(CNC(=O)c1cccc(NC2=NCCCN2)c1)NC[C@H](NC(=O)c1c(Cl)cc(-c2ccccc2)cc1Cl)C(=O)O [SU15210-0147-01, (S)-2-(3,5-dichlorobiphenyl-4-ylcarboxamido)-3-(2-(3-(1,4,5,6-tetrahydropyrimidin-2-ylamino)benzamido)acetamido)propanoic acid]		< 100
N=C(N)Nc1cccc(C(=O)NCC(=O)NC[C@H](NC(=O)c2c(Cl)cc(-c3ccccc3)cc2Cl)C(=O)O)c1	< 100	
N#C/N=C(\N)Nc1cccc(C(=O)NCC(=O)NC[C@@H](NC(=O)c2c(Cl)cccc2Cl)C(=O)O)c1	< 10000	
C/N=C(\NC)Nc1cccc(C(=O)NCC(=O)NC[C@H](NC(=O)c2c(Cl)cc(-c3ccccc3)cc2Cl)C(=O)O)c1 [SU15210-0193-01, (S,E)-2-(3,5-dichlorobiphenyl-4-ylcarboxamido)-3-(2-(3-(2,3-dimethylguanidino)benzamido)acetamido)propanoic acid]		101 to 1000
O=C(CCc1ccc2c(n1)NCCC2)NCC(=O)NC[C@H](NC(=O)c1c(Cl)cc(-c2ccccc2)cc1Cl)C(=O)O [SU15210-0151-01, (S)-2-(3,5-dichloro-[1,1′-biphenyl]-4-carboxamido)-3-(2-(3-(5,6,7,8-tetrahydro-1,8-naphthyridin-2-yl)propanamido)acetamido)propanoic acid]		101 to 1000
N=C(N)Nc1ccc2c(c1)C(NCC(=O)NC[C@H](NC(=O)c1c(Cl)cccc1Cl)C(=O)O)CCO2 (stereo partly drawn)	< 1000	
CS(=O)(=O)c1ccc(-c2cc(Cl)c(C(=O)N[C@@H](CNC(=O)CNC(=O)c3cccc(N=C(N)N)c3)C(=O)O)c(Cl)c2)cc1 [SU15210-0110-01, (S)-2-(3,5-dichloro-4′-(methylsulfonyl)biphenyl-4-ylcarboxamido)-3-(2-(3 guanidinobenzamido)acetamido)propanoic acid]		< 100
N=C(N)Nc1ccc2ncn(CCC(=O)NC[C@H](NC(=O)c3c(Cl)cccc3Cl)C(=O)O)c2c1	< 10000	

Next, values leading:

IC50 [1] [nM]	IC50 [2] [nM]	SMILES
	< 100	O=C(CNC(=O)c1cccc(NC2=NCCCS2)c1)NC[C@H](NC(=O)c1c(Cl)cc(-c2ccccc2)cc1Cl)C(=O)O [SU15210-0230-01]
	< 100	COC(=O)[C@H](CNC(=O)CNC(=O)c1cc(C#N)cc(N/C(=N/C(=O)OC(C)(C)C)NC(=O)OC(C)(C)C)c1)NC(=O)c1c(Cl)cc(-c2ccccc2)cc1Cl [SU15210-0206-01]
	< 100	O=C(CNC(=O)c1cccc(NC2=NCC(F)CN2)c1)NC[C@H](NC(=O)c1c(Cl)cc(N2CCS(=O)(=O)CC2)cc1Cl)C(=O)O (stereo partly drawn) [SU15210-0253-01]
< 1000		N#C/N=C(\N)Nc1cccc(C(=O)NCC(=O)NC[C@H](NC(=O)c2c(Cl)cccc2Cl)C(=O)O)c1 [drawing 110]
	101 to 1000	CN(CC(=O)NC[C@H](NC(=O)c1c(Cl)cc(-c2ccccc2)cc1Cl)C(=O)O)C(=O)c1cccc(NC(=N)N)c1 [SU15210-0202-01, (S)-2-(3,5-dichlorobiphenyl-4-ylcarboxamido)-3-(2-(3 guanidino-N-methylbenzamido)acetamido)propanoic acid]
	101 to 1000	C[C@@H](NC(=O)c1cccc(NC2=NCC(F)CN2)c1)C(=O)NC[C@H](NC(=O)c1c(Cl)cc(-c2ccccc2)cc1Cl)C(=O)O (stereo partly drawn) [SU15210-0254, (2S)-2-[(2,6-dichloro-4-phenyl-benzoyl)amino]-3-[[(2R)-2-[[3-[(5-fluoro-1,4,5,6-tetrahydropyrimidin-2-yl)amino]benzoyl]amino]propanoyl]amino]propanoic acid]
	< 100	O=C(CNC(=O)c1cccc(NC2=NCC(F)CN2)c1)NC[C@H](NC(=O)c1c(Cl)cc(N2CCOCC2)cc1Cl)C(=O)O (stereo partly drawn) [SU15210-0248-01, (2 S)-2-(2,6-dichloro-4-morpholinobenzamido)-3-(2-(3-(5-fluoro-1,4,5,6-tetrahydropyrimidin-2-ylamino)benzamido)acetamido)propanoic acid]
	< 100	O=C(CNC(=O)c1cccc(NC2=NCC(F)(F)CN2)c1)NC[C@H](NC(=O)c1c(Cl)cc(N2CCOCC2)cc1Cl)C(=O)O [SU15210-0271-01, (S)-2-(2,6-dichloro-4-morpholinobenzamido)-3-(2-(3-(5,5-difluoro-1,4,5,6-tetrahydropyrimidin-2-ylamino)benzamido)acetamido)propanoic acid]
< 100		N#C/N=C(\N)Nc1cccc(C(=O)NCC(=O)NC[C@H](NC(=O)c2c(Cl)cccc2Cl)C(=O)O)c1 [drawing 107]
	< 100	O=C(CNC(=O)c1cccc(NC2=NCC(F)(F)CN2)c1)NC[C@H](NC(=O)c1c(Cl)cc(-c2ccc3cn[nH]c3c2)cc1Cl)C(=O)O [SU15210-0272-01, (S)-2-(2,6-dichloro-4-(1H-indazol-6-yl)benzamido)-3-(2-(3-(5,5-difluoro-1,4,5,6-tetrahydropyrimidin-2-ylamino)benzamido)acetamido)propanoic acid]
	< 100	O=C(CNC(=O)c1cccc(NC2=NCC(F)CN2)c1)NC[C@H](NC(=O)c1c(Cl)cc(-c2ccc3cn[nH]c3c2)cc1Cl)C(=O)O (stereo partly drawn) [SU15210-0241-01, (2S)-2-(2,6-dichloro-4-(1H-indazol-6-yl)benzamido)-3-(2-(3-(5-fluoro-1,4,5,6-tetrahydropyrimidin-2-ylamino)benzamido)acetamido)propanoic acid]
	< 100	O=C(CNC(=O)c1cccc(NC2=NCC(F)(F)CN2)c1)NC[C@H](NC(=O)c1c(Cl)cc(-c2ccccc2)cc1Cl)C(=O)O [SU15210-0200, (S)-2-(3,5-dichlorobiphenyl-4-ylcarboxamido)-3-(2-(3-(5,5-difluoro-1,4,5,6-tetrahydropyrimidin-2-ylamino)benzamido)acetamido)propanoic acid]
